# Patent publication US11458132B2, “Quinolin-2(1H)-one inhibitors of Late SV40 Factor” (TRUSTEES OF BOSTON UNIVERSITY, priority 2020, dated 2022)
# Tests used:
# FH-B cells = assay: MTS cell proliferation assay; type: cell-based, human; conditions: for GI50: Homo sapiens, FH-B cells, MTS assay, 72 hour treatment
# Experimental: MTS Cell Proliferation Assay: Three thousand FH-B cells were seeded per well in a 96-well plate and incubated at 37° C. for 20 hours. Compound dilutions were prepared in DMSO and added to the cell culture media to a final DMSO concentration of 1% for a 72 hour treatment. Cell growth inhibition was assessed by measuring absorbance at 490 nm using the Promega CellTiter 96® AQueous One Solution Cell Proliferation Assay (Promega, G358C). Percent growth inhibition was determined by the ratio of the absorbance of treatment wells to the absorbance of control wells. A non-linear regression plot of the percentage of growth inhibition versus compound concentration was prepared using GraphPad Prism software, using settings for the curves of variable slope and four parameters. The relative GI50 value was determined from the curve as the concentration of drug that provokes a response halfway between the top and bottom plateaus of the curve.
# RPE cells = assay: Wound healing assay; type: cell-based
# Experimental: Wound healing analysis: Confluent RPE cells were synchronized by incubating with 2 mM thymidine for 18-20 hours. Two intersecting lines were drawn into the confluent cells using a pipette tip. A phase-contrast image was acquired of the intersection point (“0 h” time-point) on an Olympus IX50 inverted microscope, immediately followed by treatment with the respective inhibitor and 2 mM thymidine. Phase-contrast images of the intersection point were acquired every 2 hours for 12 hours, continuing incubation at 37° C. in 5% CO2 in-between time points. Using ImageJ, the distances between each pair of neighboring vertices of the intersection point at each time-point were measured and normalized to the “0 h” sample.
# RPE-hTERT Flp-In cells, propagated in DME M:F12 media with 10% fetal bovine serum at 37° C. in a 5% CO2 humidified incubator, were grown to confluence in 6-well tissue culture plates. One day prior to performing the wound healing assay, the medium was exchanged to also include 2 mM thymidine, so that the cells would stop dividing.
# A cross-shaped wound was scratched into each well, and the cells imaged by phase contrast microscopy using at 4× magnification using a Olympus IX50 Inverted microscope. Then the cell media was exchanged to include vehicle (DMSO at 0.01%), 50 nM FQI2-34, 100 nM FQI2-34, or 200 nM FQI2-34; 2 mM thymidine was maintained throughout, as well. Cells were imaged again at 2 h, 4h, 6h, and 8h, in order to measure the migration of the cells into the wound.
# Each of the 4 lines across the vertices of the “X” were individually measured from each set of images using ImageJ. Relative distances of cell migration into the wound were obtained by subtracting each of the lengths for 2-8 hour timepoints from the length at the 0 hour timepoint for that line and that sample. The averages of the four changes in lengths per sample were then plotted over time for each concentration of FQI2-34, from […], using Prism software. Triplicate technical replicates were performed for each concentration.
# LSF = target: T1, LSF (Homo sapiens, UniProt Q12800); assay: Cellular thermal shift assay (CETSA) in Huh7 cells; type: binding; conditions: 50 μM, three hours, vs DMSO
# T1 construct: Representative immunoblots of soluble LSF after treatment with FQI2-34 versus DMSO; endogenous in cells; host or cells: Huh7
# T1 sequence (Q12800 1-502): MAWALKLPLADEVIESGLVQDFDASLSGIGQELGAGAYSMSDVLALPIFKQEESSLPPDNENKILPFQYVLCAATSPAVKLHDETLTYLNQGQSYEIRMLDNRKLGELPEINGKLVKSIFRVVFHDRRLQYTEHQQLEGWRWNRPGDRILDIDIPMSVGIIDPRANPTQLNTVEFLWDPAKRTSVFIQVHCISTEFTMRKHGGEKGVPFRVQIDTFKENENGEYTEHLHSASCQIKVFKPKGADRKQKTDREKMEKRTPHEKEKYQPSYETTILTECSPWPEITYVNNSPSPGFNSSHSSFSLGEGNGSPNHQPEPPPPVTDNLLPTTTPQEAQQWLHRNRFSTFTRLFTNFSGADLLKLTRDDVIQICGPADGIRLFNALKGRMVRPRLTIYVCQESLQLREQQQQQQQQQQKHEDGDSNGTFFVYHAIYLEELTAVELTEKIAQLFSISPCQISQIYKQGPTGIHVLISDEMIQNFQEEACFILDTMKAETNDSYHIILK
# Experimental: Cellular Thermal Shift Assay (CETSA): Huh7 cells obtained from JCRB (Japanese Cancer Resources Bank) were cultured in DMEM medium (Corning) supplemented with 10% fetal bovine serum (Gibco). The cells were cultured at 37° C. in 5% CO2. Approximately 9×10^5 Huh7 cells were plated per 10 cm plate. After 20 hours, cells were treated for three hours with fresh media containing 50 μM FQI1, 50 μM FQI2-34, or 0.1% DMSO (FQI1 control) or 0.5% DMSO (FQI2-34 control). Subsequently, the cells were washed with PBS (137 mM NaCl, 2.7 mM KCl, 10 mM Na2HPO4, 2 mM KH2PO4, pH 7.2) supplemented with their respective treatments (FQI1, FQI2-34, or vehicle) and scraped from the dish in the presence of 5 mL of PBS supplemented with 1 mM Pefabloc (Sigma-Aldrich, 76307) plus the respective treatment. Pelleted cells were resuspended in 500 μL of PBS buffer with 1 mM Pefabloc plus the respective treatment. Aliquots of 50 μL of cell suspension from each treatment sample were incubated separately at the indicated temperatures for 3 minutes in a thermal cycler (Bio-rad, T100 Thermocyler), then cooled at the room temperature for 3 minutes. Lysates were prepared by four rounds of snap freezing and thawing. […] Films were scanned and band intensities were quantified by densitometry with Image J; a non-parametric t-test was used to determine statistical significance.
SMILES,fold higher efficacy than FQI1 in inhibiting proliferation of FH-B cells (FH-B cells),GI50 (FH-B cells),fold lower concentration than that used for FQI1 in the same assay (RPE cells),"concentration that effectively inhibits cell migration (RPE cells; 50, 100, 200 nM tested, 2-8 h)",stability of LSF to thermal denaturation (LSF),time by which inhibition of migration is detectable (RPE cells; 4 μM FQI1),"migration of cells into the wound (RPE cells; 4 μM FQI1 or 1 μM nocodazole, monitored 12 hours)"
"CCOc1cc(N(C)C)ccc1-c1cc(=O)[nH]c2cc3c(cc12)OCO3 [FQI2-34, 8-(4-(dimethylamino)-2-ethoxyphenyl)-[1,3]dioxolo[4,5-g]quinolin-6(5H)-one]",17 fold,140 nM,20 fold,200 nM,enhanced the stability of LSF to thermal denaturation,–,–
"CCOc1ccccc1C1CC(=O)Nc2cc3c(cc21)OCO3 (stereo not drawn) [FQI1, 8-(2-ethoxyphenyl)-7,8-dihydro-[1,3]dioxolo[4,5-g]quinolin-6(5H)-one]",–,2300 nM,–,–,enhanced the stability of LSF to thermal denaturation,≤ 4 h,hindered RPE cells from migrating into the wound
